# Reference: patent US20260234112A1, “COMPOUNDS, COMPOSITIONS, AND METHODS OF USE THEREOF” (Type6 Therapeutics, Inc., priority 2023, published 2026)
# Target: T1, Cdk2(2-298) (Homo sapiens, UniProt P24941)
# T1 construct: Biotinylated N-terminal avi-tagged Cdk2(2-298) or Cdk1(1-297) was immobilized
# Assay: Surface Plasmon Resonance (SPR) compound interaction, Biacore 8K
# Type: binding
# Conditions: single-cycle kinetics (SCK, "S"), dissociation 1800 sec, read-out: Activity rating (KD)
# Method: Compound interaction was profiled using a Biacore 8K instrument (Cytiva). Biotinylated N-terminal avi-tagged Cdk2(2-298) or Cdk1(1-297) was immobilized on a series S sensor Chip SA at a capture level between 2500 RU and 3000 RU (Cdk2) or 7000 RU (Cdk1) in buffer (25 mM HEPES, 150 mM NaCl, 0.05% Tween20, pH 7.5). A compound dilution plate (8 concentrations, 3-fold dilution) in DMSO was prepared (100× assay concentration). From this plate, compound DMSO stock solution was transferred into buffer, yielding a final DMSO concentration of 1% in assay. The remaining buffer was supplemented with 1% DMSO. Compounds were injected in a series of increasing concentrations in multi-cycle kinetics (MCK, “M”) or single-cycle kinetics (SCK, “S”) mode at a flow rate of 30 μl/min for 120 sec and dissociation was profiled for 180 sec (MCK) or 1800 sec (SCK). Data were analysed using Biacore Insight Evaluation Software (Cytiva).
row,Structure (SMILES),Kd [nM]
1,"N[C@H]1CC[C@H](Nc2nccc(-c3ccccc3Oc3ccc(NS(=O)(=O)c4ccccc4)cc3F)n2)CC1 [Compound 1, N-[4-[2-[2-[(1r,4r)(4-Aminocyclohexyl)amino]pyrimidin-4-yl]phenoxy]-3-fluoro-phenyl] benzenesulfonamide]",11 to 100
2,"N[C@H]1CC[C@H](Nc2nccc(-c3ccccc3Oc3ccc(NS(=O)(=O)c4ccccc4Cl)cc3F)n2)CC1 [Compound 3, N-[4-[2-[2-[(1r,4r)(4-Aminocyclohexyl)amino]pyrimidin-4-yl]phenoxy]-3-fluorophenyl] 2-chlorobenzenesulfonamide]",11 to 100
3,"N[C@H]1CC[C@H](Nc2nccc(-c3ccccc3Oc3ccc(NS(=O)(=O)c4cccc5ccccc45)cc3F)n2)CC1 [Compound 4, N-[4-[2-[2-[(1r,4r)(4-Aminocyclohexyl)amino]pyrimidin-4-yl]phenoxy]-3-fluorophenyl] naphthalene-1-sulfonamide]",100 to 1000
4,"O=S(=O)(Nc1ccc(Oc2ccccc2-c2ccnc(N[C@H]3CCCNC3)n2)c(F)c1)c1ccccc1Cl [Compound 5, N-[3-Fluoro-4-[2-[2-[[(3S)-3-piperidyl]amino]pyrimidin-4-yl]phenoxy]phenyl] 2-chlorobenzenesulfonamide]",≤ 10
5,"O=S(=O)(Nc1ccc(Oc2ccccc2-c2ccnc(N[C@H]3CCCNC3)n2)c(F)c1)c1cccc2ccccc12 [Compound 6, N-[3-Fluoro-4-[2-[2-[[(3S)-3-piperidyl]amino]pyrimidin-4-yl]phenoxy]phenyl] naphthalene-1-sulfonamide]",100 to 1000
6,"Cc1ccc(Oc2ccc(NS(=O)(=O)c3ccccc3Cl)cc2F)c(-c2ccnc(N[C@H]3CC[C@H](N)CC3)n2)c1 [Compound 7, N-[4-[2-[2-[(1r,4r)(4-Aminocyclohexyl)amino]pyrimidin-4-yl]-4-methylphenoxy]-3-fluorophenyl] 2-chlorobenzenesulfonamide]",11 to 100
7,"N[C@H]1CC[C@H](Nc2nccc(-c3ccc(-c4ccccc4)cc3Oc3ccc(NS(=O)(=O)c4ccccc4Cl)cc3F)n2)CC1 [Compound 18, N-[4-[2-[2-[(1r,4r)(4-Aminocyclohexyl)amino]pyrimidin-4-yl]-5-phenylphenoxy]-3-fluorophenyl] 2-chlorobenzenesulfonamide]",> 5000
8,"CC(C)c1ccc(-c2ccnc(N[C@H]3CC[C@H](N)CC3)n2)c(Oc2ccc(NS(=O)(=O)c3ccccc3Cl)cc2F)c1 [Compound 20, N-[4-[2-[2-[(1r,4r)(4-Aminocyclohexyl)amino]pyrimidin-4-yl]-5-(1-methylethyl)phenoxy]-3-fluorophenyl] 2-chlorobenzenesulfonamide]",11 to 100
9,"N[C@H]1CC[C@H](Nc2nccc(-c3cc4ccccc4cc3Oc3ccc(NS(=O)(=O)c4ccccc4Cl)cc3F)n2)CC1 [Compound 23, N-[4-[2-[2-[(1r,4r)(4-Aminocyclohexyl)amino]pyrimidin-4-yl]naphthyl-3-oxy]-3-fluorophenyl] 2-chlorobenzenesulfonamide]",≤ 10
10,"N[C@H]1CC[C@H](Nc2nccc(-c3cnccc3Oc3ccc(NS(=O)(=O)c4ccccc4Cl)cc3F)n2)CC1 [Compound 24, N-[4-[[3-[2-(1r,4r)[(4-aminocyclohexyl)amino]pyrimidin-4-yl]-4-pyridyl]oxy]-3-fluoro-phenyl]-2-chloro-benzenesulfonamide]",≤ 10
11,"N[C@H]1CC[C@H](Nc2nccc(-c3cnccc3Oc3ccc(NS(=O)(=O)c4c(F)cccc4F)cc3F)n2)CC1 [Compound 26, N-[4-[[3-[2-[(1r,4r)(4-Aminocyclohexyl)amino]pyrimidin-4-yl]-4-pyridyl]oxy]-3-fluoro-phenyl] 2,6-difluoro-benzenesulfonamide]",≤ 10
12,"COc1ccccc1S(=O)(=O)Nc1ccc(Oc2ccncc2-c2ccnc(N[C@H]3CC[C@H](N)CC3)n2)c(F)c1 [Compound 27, N-(4-((3-(2-((1r,4r)-4-aminocyclohexyl)amino)pyrimidin-4-yl)pyridin-4-yloxy)-3-fluorophenyl) 2-methoxybenzenesulfonamide]",11 to 100
13,"COc1ccc(Br)cc1S(=O)(=O)Nc1ccc(Oc2ccncc2-c2ccnc(N[C@H]3CC[C@H](N)CC3)n2)c(F)c1 [Compound 28, N-(4-((3-(2-((1r,4r)-4-aminocyclohexyl)amino)pyrimidin-4-yl)pyridin-4-yloxy)-3-fluorophenyl) 5-bromo-2-methoxybenzenesulfonamide]",100 to 1000
14,N[C@H]1CC[C@H](Nc2nccc(-c3cnccc3Oc3ccc(NS(=O)(=O)c4cccs4)cc3F)n2)CC1 [Compound 29],11 to 100
15,"N#Cc1ccc(S(=O)(=O)Nc2ccc(Oc3ccncc3-c3ccnc(N[C@H]4CC[C@H](N)CC4)n3)c(F)c2)cc1 [Compound 30, N-(4-((3-(2-((1r,4r)-4-aminocyclohexyl)amino)pyrimidin-4-yl)pyridin-4-yloxy)-3-fluorophenyl) 4-cyanobenzenesulfonamide]",100 to 1000
16,"N[C@H]1CC[C@H](Nc2nccc(-c3cnccc3Oc3ccc(NS(=O)(=O)c4csc5ccccc45)cc3F)n2)CC1 [Compound 31, N-(4-((3-(2-((1r,4r)-4-aminocyclohexyl)amino)pyrimidin-4-yl)pyridin-4-yloxy)-3-fluorophenyl) benzo[b]thiophene-3-sulfonamide]",11 to 100

# Results, then the compound that gave them:
row,Kd [nM],Structure (SMILES)
1,1000 to 5000,"O=S(=O)(Nc1ccc(Oc2ccccc2-c2ccnc(N[C@H]3CCCNC3)n2)c(F)c1)c1ccccc1 [Compound 2, N-[3-Fluoro-4-[2-[2-[[(3S)-3-piperidyl]amino]pyrimidin-4-yl]phenoxy]phenyl] benzenesulfonamide]"
2,11 to 100,"N[C@H]1CC[C@H](Nc2nccc(-c3cc(C(F)(F)F)ccc3Oc3ccc(NS(=O)(=O)c4ccccc4Cl)cc3F)n2)CC1 [Compound 8, N-[4-[2-[2-[(1r,4r)(4-Aminocyclohexyl)amino]pyrimidin-4-yl]-4-(trifluoromethyl)phenoxy]-3-fluorophenyl] 2-chlorobenzenesulfonamide]"
3,11 to 100,"Cc1ccc(-c2ccnc(N[C@H]3CC[C@H](N)CC3)n2)c(Oc2ccc(NS(=O)(=O)c3ccccc3Cl)cc2F)c1 [Compound 9, N-[4-[2-[2-[(1r,4r)(4-Aminocyclohexyl)amino]pyrimidin-4-yl]-5-methylphenoxy]-3-fluorophenyl] 2-chlorobenzenesulfonamide]"
4,11 to 100,"N#Cc1ccc(Oc2ccc(NS(=O)(=O)c3ccccc3Cl)cc2F)c(-c2ccnc(N[C@H]3CC[C@H](N)CC3)n2)c1 [Compound 10, N-[4-[2-[2-[(1r,4r)(4-Aminocyclohexyl)amino]pyrimidin-4-yl]-4-cyanophenoxy]-3-fluorophenyl] 2-chlorobenzenesulfonamide]"
5,11 to 100,"CC(C)(C)c1ccc(-c2ccnc(N[C@H]3CC[C@H](N)CC3)n2)c(Oc2ccc(NS(=O)(=O)c3ccccc3Cl)cc2F)c1 [Compound 11, N-[4-[2-[2-[(1r,4r)(4-Aminocyclohexyl)amino]pyrimidin-4-yl]-5-(1,1-dimethylethyl)phenoxy]-3-fluorophenyl] 2-chlorobenzenesulfonamide]"
6,11 to 100,"N[C@H]1CC[C@H](Nc2nccc(-c3ccc(I)cc3Oc3ccc(NS(=O)(=O)c4ccccc4Cl)cc3F)n2)CC1 [Compound 16, N-[4-[2-[2-[(1r,4r)(4-Aminocyclohexyl)amino]pyrimidin-4-yl]-5-iodophenoxy]-3-fluorophenyl] 2-chlorobenzenesulfonamide]"
7,11 to 100,"CCc1ccc(-c2ccnc(N[C@H]3CC[C@H](N)CC3)n2)c(Oc2ccc(NS(=O)(=O)c3ccccc3Cl)cc2F)c1 [Compound 17, N-[4-[2-[2-[(1r,4r)(4-Aminocyclohexyl)amino]pyrimidin-4-yl]-5-ethylphenoxy]-3-fluorophenyl] 2-chlorobenzenesulfonamide]"
8,11 to 100,"N[C@H]1CC[C@H](Nc2nccc(-c3ccc(C4CC4)cc3Oc3ccc(NS(=O)(=O)c4ccccc4Cl)cc3F)n2)CC1 [Compound 19, N-[4-[2-[2-[(1r,4r)(4-Aminocyclohexyl)amino]pyrimidin-4-yl]-5-cyclopropylphenoxy]-3-fluorophenyl] 2-chlorobenzenesulfonamide]"
9,11 to 100,"C=Cc1ccc(-c2ccnc(N[C@H]3CC[C@H](N)CC3)n2)c(Oc2ccc(NS(=O)(=O)c3ccccc3Cl)cc2F)c1 [Compound 21, N-[4-[2-[2-[(1r,4r)(4-Aminocyclohexyl)amino]pyrimidin-4-yl]-5-ethenylphenoxy]-3-fluorophenyl] 2-chlorobenzenesulfonamide]"
10,11 to 100,"N[C@H]1CC[C@H](Nc2nccc(-c3ccc(C4CCCCC4)cc3Oc3ccc(NS(=O)(=O)c4ccccc4Cl)cc3F)n2)CC1 [Compound 22, N-[4-[2-[2-[(1r,4r)(4-Aminocyclohexyl)amino]pyrimidin-4-yl]-5-cyclohexylphenoxy]-3-fluorophenyl] 2-chlorobenzenesulfonamide]"
11,11 to 100,"O=S(=O)(Nc1ccc(Oc2ccncc2-c2ccnc(N[C@H]3CCCNC3)n2)cc1F)c1ccccc1Cl [Compound 25, N-[2-Fluoro-4-[[3-[2-[[(3S)-3-piperidyl]amino]pyrimidin-4-yl]-4-pyridyl]oxy]phenyl] 2-chlorobenzenesulfonamide]"
12,100 to 1000,"N[C@H]1CC[C@H](Nc2nccc(-c3cnccc3Oc3ccc(NS(=O)(=O)c4ccccc4)c(C(F)(F)F)c3)n2)CC1 [Compound 32, N-(4-((3-(2-(((1r,4r)-4-Aminocyclohexyl)amino)pyrimidin-4-yl)pyridin-4-yl)oxy)-2-(trifluoromethyl)phenyl) benzenesulfonamide]"
